Tests used:
Format in all cases: cell-based
[1] = system: Colorectal carcinoma HCT116 cells; assay: HCT116 + ETR1 cell death assay (MTT, 72 hours); conditions: with HGS ETR1 40 ng/ml
Protocol: Colorectal carcinoma HCT116 cells were cultured as monolayers in 96 well plates at a density of 2000 cells per well in McCoy's 5a medium (HyClone) supplemented with 2.2 g/L sodium bicarbonate (Gibco), 10% FBS (HyClone) and 1% penecillin/streptomycin (HyClone). 24 hours later, triplicate wells were treated with HGS ETR1 (40 ng/ml) in combination with compound. Cells were incubated in the presence of compound and HGS agonistic Trail receptor antibody, ETR1 (Mapatumamab, 40 ng/ml) for 72 hours. Metabolic viability of remaining cells was assessed by MTT (thiazolyl blue tetrazolium bromide, Sigma) assay.
(§1) EC50 values (50% cell survival in the presence of compound as compared to untreated controls) were calculated from survival curves using BioAssay software (CambridgeSoft, HCT116 and SKOV3 SAR) and GraphPad Prism (Graph Pad Software Inc., Synoviocyte SAR).

[2] = system: Ovarian adenocarcinoma SKOV3 cells; assay: SKOV3 cell death assay (MTT, 72 hours); conditions: Homo sapiens, SK-OV-3, compound alone
Protocol: Ovarian adenocarcinoma SKOV3 cells were cultured as monolayers in McCoy's 5a medium (HyClone) supplemented with 2.2 g/L sodium bicarbonate (Gibco), 10% FBS (HyClone) and 1% penicillin/streptomycin (HyClone). Cells were seeded in 96 well plates at 5000 cells/well. After 24 hours in culture, cells were treated with compound. Cells were incubated in the presence of compound for 72 hours. Metabolic viability of remaining cells was assessed by MTT (thiazolyl blue tetrazolium bromide, Sigma) assay.
as §1

[3] = system: Rheumatoid arthritis human fibroblast-like synoviocytes (HFLS-RA); assay: Synoviocytes + Fas antibody cell survival assay (Cell Titer-Glo); conditions: with 300 ng/ml anti-human CD95 (Fas) antibody CH-11, 72 hours, read-out: EC50 synoviocyctes + FAS
Protocol: Rheumatoid arthritis human fibroblast-like synoviocytes (HFLS-RA, Cell Applications Inc.) were seeded in 96-well plates at 3000 cells per well in complete synoviocyte growth medium (Cell Applications Inc.) one day prior to treatment. Triplicate wells were treated for 72 hours compound in combination with 300 ng/ml anti-human CD95 (Fas) antibody (clone CH-11, Beckman Coulter/Immunotech). Cell survival was measured by Cell Titer-Glo Luminescent Assay (Promega).
as §1

CN[C@@H](C)C(=O)N[C@H](C(=O)N1CCC[C@H]1CN(CCc1ccccc1)C(=O)CNC(=O)c1ccc(C(=O)NCC(=O)N(CCc2ccccc2)C[C@@H]2CCCN2C(=O)[C@@H](NC(=O)[C@H](C)NC)C2CCCCC2)cc1)C1CCCCC1 [Compound 1]
EC50 [1]: < 0.1 µM
EC50 [2]: < 0.1 µM

CN[C@@H](C)C(=O)N[C@H](C(=O)N1CCC[C@H]1CN(CCc1ccccc1)C(=O)CNC(=O)c1ccc2cc(C(=O)NCC(=O)N(CCc3ccccc3)C[C@@H]3CCCN3C(=O)[C@@H](NC(=O)[C@H](C)NC)C3CCCCC3)ccc2c1)C1CCCCC1 [Compound 3]
EC50 [1]: < 0.1 µM
EC50 [2]: < 0.1 µM

CN[C@@H](C)C(=O)N[C@H](C(=O)N1CCC[C@H]1CN(CCc1ccccc1)C(=O)CNC(=O)C1CCC(C(=O)NCC(=O)N(CCc2ccccc2)C[C@@H]2CCCN2C(=O)[C@@H](NC(=O)[C@H](C)NC)C2CCCCC2)CC1)C1CCCCC1 (stereo partly shown) [Compound 4]
EC50 [1]: < 0.1 µM
EC50 [2]: < 0.1 µM

CN[C@@H](C)C(=O)N[C@H](C(=O)N1CCC[C@H]1CN(CCc1ccc(F)cc1)C(=O)c1ccc(C(=O)N(CCc2ccc(F)cc2)C[C@@H]2CCCN2C(=O)[C@@H](NC(=O)[C@H](C)NC)C2CCCCC2)cc1)C1CCCCC1 [Compound 5]
EC50 [1]: < 0.1 µM
EC50 [2]: < 0.1 µM

CN[C@@H](C)C(=O)N[C@H](C(=O)N1CCC[C@H]1CN(CCc1ccc(F)cc1)C(=O)CNC(=O)c1ccc(C(=O)NCC(=O)N(CCc2ccc(F)cc2)C[C@@H]2CCCN2C(=O)[C@@H](NC(=O)[C@H](C)NC)C2CCCCC2)cc1)C1CCCCC1 [Compound 7]
EC50 [1]: < 0.1 µM
EC50 [2]: < 0.1 µM

CN[C@@H](C)C(=O)N[C@H](C(=O)N1CCC[C@H]1CN(CCc1ccc(F)cc1)C(=O)CNC(=O)c1ccc2cc(C(=O)NCC(=O)N(CCc3ccc(F)cc3)C[C@@H]3CCCN3C(=O)[C@@H](NC(=O)[C@H](C)NC)C3CCCCC3)ccc2c1)C1CCCCC1 [Compound 9]
EC50 [1]: < 0.1 µM
EC50 [2]: < 0.1 µM

CN[C@@H](C)C(=O)N[C@H](C(=O)N1CCC[C@H]1CN(CCc1ccc(F)cc1)C(=O)CNC(=O)C1CCC(C(=O)NCC(=O)N(CCc2ccc(F)cc2)C[C@@H]2CCCN2C(=O)[C@@H](NC(=O)[C@H](C)NC)C2CCCCC2)CC1)C1CCCCC1 (stereo partly shown) [Compound 10]
EC50 [1]: < 0.1 µM

CN[C@@H](C)C(=O)N[C@H](C(=O)N1CCC[C@H]1CN(CCc1ccc(F)cc1)C(=O)c1ccc2cc(C(=O)N(CCc3ccc(F)cc3)C[C@@H]3CCCN3C(=O)[C@@H](NC(=O)[C@H](C)NC)C3CCCCC3)ccc2c1)C1CCCCC1 [Compound 11]
EC50 [1]: < 0.1 µM
EC50 [3]: < 0.1 µM

CN[C@@H](C)C(=O)N[C@H](C(=O)N1CCC[C@H]1CN(CCc1ccccc1)C(=O)c1ccc2cc(C(=O)N(CCc3ccccc3)C[C@@H]3CCCN3C(=O)[C@@H](NC(=O)[C@H](C)NC)C3CCCCC3)ccc2c1)C1CCCCC1 [Compound 12]
EC50 [1]: < 0.1 µM

CN[C@@H](C)C(=O)N[C@H](C(=O)N1CCC[C@H]1CN(CCc1ccc(OC)cc1)C(=O)c1ccc2cc(C(=O)N(CCc3ccc(OC)cc3)C[C@@H]3CCCN3C(=O)[C@@H](NC(=O)[C@H](C)NC)C3CCCCC3)ccc2c1)C1CCCCC1 [Compound 13]
EC50 [1]: > 0.1 µM

CN[C@@H](C)C(=O)N[C@H](C(=O)N1CCC[C@H]1CN(CCc1ccc(OC)cc1)C(=O)CNC(=O)c1ccc(-c2ccc(C(=O)NCC(=O)N(CCc3ccc(OC)cc3)C[C@@H]3CCCN3C(=O)[C@@H](NC(=O)[C@H](C)NC)C3CCCCC3)cc2)cc1)C1CCCCC1 [Compound 14]
EC50 [1]: > 0.1 µM

CN[C@@H](C)C(=O)N[C@H](C(=O)N1CCC[C@H]1CN(C(=O)CNC(=O)c1ccc(-c2ccc(C(=O)NCC(=O)N(C[C@@H]3CCCN3C(=O)[C@@H](NC(=O)[C@H](C)NC)C3CCCCC3)C3Cc4ccccc4C3)cc2)cc1)C1Cc2ccccc2C1)C1CCCCC1 [Compound 15]
EC50 [1]: < 0.1 µM

CN[C@@H](C)C(=O)N[C@H](C(=O)N1CCC[C@H]1CN(CCc1ccccc1)C(=O)c1ccc2cc(C(=O)N(CCc3ccccc3)C[C@@H]3CCCN3C(=O)[C@@H](NC(=O)[C@H](C)NC)C3CCCC3)ccc2c1)C1CCCC1 [Compound 16]
EC50 [1]: < 0.1 µM
EC50 [2]: < 0.1 µM

CN[C@@H](C)C(=O)N[C@H](C(=O)N1CCC[C@H]1CN(CCc1ccccc1)C(=O)c1ccc2cc(C(=O)N(CCc3ccccc3)C[C@@H]3CCCN3C(=O)[C@@H](NC(=O)[C@H](C)NC)c3ccccc3)ccc2c1)c1ccccc1 [Compound 24]
EC50 [1]: < 0.1 µM

CN[C@@H](C)C(=O)N[C@H](C(=O)N1CCC[C@H]1CN(CCc1ccccc1)C(=O)c1ccc(-c2ccc(C(=O)N(CCc3ccccc3)C[C@@H]3CCCN3C(=O)[C@@H](NC(=O)[C@H](C)NC)c3ccccc3)cc2)cc1)c1ccccc1 [Compound 25]
EC50 [1]: < 0.1 µM

CN[C@@H](C)C(=O)N[C@H](C(=O)N1CCC[C@H]1CN(CCc1ccccc1)C(=O)c1ccc2cc(C(=O)N(CCc3ccccc3)C[C@@H]3CCCN3C(=O)[C@@H](NC(=O)[C@H](C)NC)C3CCOCC3)ccc2c1)C1CCOCC1 [Compound 26]
EC50 [1]: < 0.1 µM

CN[C@@H](C)C(=O)N[C@H](C(=O)N1CCC[C@H]1CN(CCc1ccccc1)C(=O)c1ccc(-c2ccc(C(=O)N(CCc3ccccc3)C[C@@H]3CCCN3C(=O)[C@@H](NC(=O)[C@H](C)NC)C3CCOCC3)cc2)cc1)C1CCOCC1 [Compound 27]
EC50 [1]: < 0.1 µM

CN[C@@H](C)C(=O)N[C@H](C(=O)N1CCC[C@H]1CN(CCc1ccc(F)cc1)S(=O)(=O)c1ccc2cc(S(=O)(=O)N(CCc3ccc(F)cc3)C[C@@H]3CCCN3C(=O)[C@@H](NC(=O)[C@H](C)NC)C3CCCCC3)ccc2c1)C1CCCCC1 [Compound 28]
EC50 [1]: < 0.1 µM

CN[C@@H](C)C(=O)N[C@H](C(=O)N1CCC[C@H]1CN(CCc1ccccc1)C(=O)CNC(=O)c1ccc(-c2ccc(C(=O)NCC(=O)N(CCc3ccccc3)C[C@@H]3CCCN3C(=O)[C@@H](NC(=O)[C@H](C)NC)C3CCCCC3)cn2)nc1)C1CCCCC1 [Compound 29]
EC50 [1]: < 0.1 µM

CN[C@@H](C)C(=O)N[C@H](C(=O)N1CCC[C@H]1CN(CCc1ccccc1)C(=O)c1ccc(-c2ccc(C(=O)N(CCc3ccccc3)C[C@@H]3CCCN3C(=O)[C@@H](NC(=O)[C@H](C)NC)C3CCCCC3)cn2)nc1)C1CCCCC1 [Compound 30]
EC50 [1]: < 0.1 µM

CN[C@@H](C)C(=O)N[C@H](C(=O)N1CCC[C@H]1CN(CCc1ccccc1)C(=O)[C@@H](C)NC(=O)c1ccc(-c2ccc(C(=O)N[C@H](C)C(=O)N(CCc3ccccc3)C[C@@H]3CCCN3C(=O)[C@@H](NC(=O)[C@H](C)NC)C3CCCCC3)cc2)cc1)C1CCCCC1 [Compound 31]
EC50 [1]: < 0.1 µM

CN[C@@H](C)C(=O)N[C@H](C(=O)N1CCC[C@H]1CN(CCc1ccccc1)C(=O)CN(C)C(=O)c1ccc(-c2ccc(C(=O)N(C)CC(=O)N(CCc3ccccc3)C[C@@H]3CCCN3C(=O)[C@@H](NC(=O)[C@H](C)NC)C3CCCCC3)cc2)cc1)C1CCCCC1 [Compound 32]
EC50 [1]: < 0.1 µM

CN[C@@H](C)C(=O)N[C@H](C(=O)N1CCC[C@H]1CN(CCc1ccccc1)C(=O)[C@H](C)NC(=O)c1ccc(-c2ccc(C(=O)N[C@@H](C)C(=O)N(CCc3ccccc3)C[C@@H]3CCCN3C(=O)[C@@H](NC(=O)[C@H](C)NC)C3CCCCC3)cc2)cc1)C1CCCCC1 [Compound 33]
EC50 [1]: < 0.1 µM

CN[C@@H](C)C(=O)N[C@H](C(=O)N1CCC[C@H]1CN(CCc1ccccc1)C(=O)c1csc(-c2ccc(-c3nc(C(=O)N(CCc4ccccc4)C[C@@H]4CCCN4C(=O)[C@@H](NC(=O)[C@H](C)NC)C4CCCCC4)cs3)cc2)n1)C1CCCCC1 [Compound 34]
EC50 [1]: < 0.1 µM

CN[C@@H](C)C(=O)N[C@H](C(=O)N1CCC[C@H]1CN(CCc1ccccc1)C(=O)c1csc(-c2ccc(-c3ccc(-c4nc(C(=O)N(CCc5ccccc5)C[C@@H]5CCCN5C(=O)[C@@H](NC(=O)[C@H](C)NC)C5CCCCC5)cs4)cc3)cc2)n1)C1CCCCC1 [Compound 35]
EC50 [1]: < 0.1 µM

CN[C@H](C(=O)N[C@H](C(=O)N1CCC[C@H]1CN(CCc1ccccc1)C(=O)c1ccc(-c2ccc(C(=O)N(CCc3ccccc3)C[C@@H]3CCCN3C(=O)[C@@H](NC(=O)[C@@H](NC)C3CC3)C3CCCCC3)cc2)cc1)C1CCCCC1)C1CC1 [Compound 36]
EC50 [1]: < 0.1 µM

CCN[C@@H](C)C(=O)N[C@H](C(=O)N1CCC[C@H]1CN(CCc1ccccc1)C(=O)c1ccc(-c2ccc(C(=O)N(CCc3ccccc3)C[C@@H]3CCCN3C(=O)[C@@H](NC(=O)[C@H](C)NCC)C3CCCCC3)cc2)cc1)C1CCCCC1 [Compound 37]
EC50 [1]: < 0.1 µM

CCCN[C@@H](C)C(=O)N[C@H](C(=O)N1CCC[C@H]1CN(CCc1ccccc1)C(=O)c1ccc(-c2ccc(C(=O)N(CCc3ccccc3)C[C@@H]3CCCN3C(=O)[C@@H](NC(=O)[C@H](C)NCCC)C3CCCCC3)cc2)cc1)C1CCCCC1 [Compound 38]
EC50 [1]: < 0.1 µM

CC[C@H](NC)C(=O)N[C@H](C(=O)N1CCC[C@H]1CN(CCc1ccccc1)C(=O)c1ccc(-c2ccc(C(=O)N(CCc3ccccc3)C[C@@H]3CCCN3C(=O)[C@@H](NC(=O)[C@H](CC)NC)C3CCCCC3)cc2)cc1)C1CCCCC1 [Compound 39]
EC50 [1]: < 0.1 µM

Source: patent US20110171171A1, “BRIDGED SECONDARY AMINES AND USE THEREOF AS IAP BIR DOMAIN BINDING COMPOUNDS” (Aegera Therapeutics, Inc., priority 2008, published 2011)
